Data as given in PMC11243693, “Synthesis and Biological Evaluation of New Compounds with Nitroimidazole Moiety” (Molecules, 2024).
In brackets after ≈: the same amount, converted by molar mass.

Key:
Format in all cases: cell-based
[1] = system: Staphylococcus aureus ATCC 25923; assay: Broth microdilution, S. aureus ATCC 25923
Procedure, shortened: (§1)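 MIC: A570 after 18 ± 2 h, 35 ± 2 °C. Medium: MH broth (bacterium) or MH + 2% glucose (yeasts). Serial 2-fold dilutions of compound, top solution 1000 µg/mL. Inoculum: 0.5 McFarland suspension diluted 10×. MBC/MFC: subculture onto MHA or MHA + 2% glc, 99.9% growth inhibition.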

[2] = system: Staphylococcus aureus ATCC 6538; assay: Broth microdilution, S. aureus ATCC 6538
Procedure, shortened: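 EUCAST broth microdilution: inoculum 0.5 McFarland, 10-fold diluted; Mueller-Hinton broth (bacteria) or MH + 2% glucose (yeast); twofold dilutions from 1000 µg/mL; 18 ± 2 h at 35 ± 2 °C, A570 read for MIC. MBC/MFC from subculture on MHA or MHA + 2% glc (99.9% kill).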

[3] = system: Staphylococcus aureus ATCC 43300 methicillin-resistant MRSA; assay: Broth microdilution, S. aureus ATCC 43300 MRSA
Procedure, shortened: as §1

[4] = system: Staphylococcus epidermidis ATCC 12228; assay: Broth microdilution, S. epidermidis ATCC 12228
Procedure, shortened: as §1

[5] = system: Micrococcus luteus ATCC 10240; assay: Broth microdilution, M. luteus ATCC 10240; details: for MBC/MIC Ratio: <4 bactericidal, ≥4 bacteriostatic
Procedure, shortened: as §1

[6] = system: Bacillus subtilis ATCC 6633; assay: Broth microdilution, B. subtilis ATCC 6633; details: for MBC/MIC Ratio: <4 bactericidal, ≥4 bacteriostatic
Procedure, shortened: as §1

[7] = system: Bacillus cereus ATCC 10876; assay: Broth microdilution, B. cereus ATCC 10876; details: for MBC/MIC Ratio: <4 bactericidal, ≥4 bacteriostatic
Procedure, shortened: as §1

[8] = system: Candida parapsilosis ATCC 22019; assay: Broth microdilution, C. parapsilosis ATCC 22019
Procedure, shortened: as §1

[9] = system: Candida glabrata ATCC 90030; assay: Broth microdilution, C. glabrata ATCC 90030
Procedure, shortened: as §1

[10] = system: Candida krusei ATCC 14243; assay: Broth microdilution, C. krusei ATCC 14243
Procedure, shortened: as §1

[11] = system: Candida glabrata ATCC 15126; assay: Broth microdilution, C. glabrata ATCC 15126
Procedure, shortened: as §1

[12] = system: Candida tropicalis ATCC 1369; assay: Broth microdilution, C. tropicalis ATCC 1369
Procedure, shortened: as §1

[13] = system: Candida auris CDC B11903; assay: Broth microdilution, C. auris CDC B11903
Procedure, shortened: as §1

[14] = system: Candida lusitaniae ATCC 3449; assay: Broth microdilution, C. lusitaniae ATCC 3449
Procedure, shortened: as §1

[15] = system: Gram-positive bacteria; assay: Broth microdilution, Gram-positive bacteria; details: strains as named in the sentence
Protocol: The antibacterial activity of the obtained thiosemicarbazides and hydrazide–hydrazones was determined by evaluating their ability to inhibit microbial growth in vitro using the broth microdilution method, according to the guidelines of the European Committee on Antimicrobial Susceptibility Testing (EUCAST). The method involved the preparation of microbial suspensions with a standardized density of 0.5 on the McFarland scale (equivalent to 1.5 × 10^8 colony-forming units/mL for bacteria and […] for fungi). A solution of the test substances was then prepared (initial concentration 1000 µg/mL, diluted in sterile Mueller-Hinton broth for bacteria or Mueller-Hinton with 2% glucose for fungi). The test was carried out in 96-well polystyrene flat-bottom plates (Medlab, Poland) with 100 µL of appropriate sterile microbiological medium in each well. […] After incubation, the spectrophotometric absorbance at 570 nm in each well of the plate was read. […] The MBC value was determined by adding 5 µL of the contents of each well of the plate to solid sterile MHA or MHA + 2%glc medium for bacteria and fungi, respectively. […] In addition, the quotient MBC(MFC)/MIC could be determined to assess the nature of the activity of the test substance. […]

[16] = system: Candida spp.; assay: Broth microdilution, Candida spp.; details: range over both strains and the listed compounds
Protocol: The antibacterial activity of the obtained thiosemicarbazides and hydrazide–hydrazones was determined by evaluating their ability to inhibit microbial growth in vitro using the broth microdilution method, according to the guidelines of the European Committee on Antimicrobial Susceptibility Testing (EUCAST). The method involved the preparation of microbial suspensions with a standardized density of 0.5 on the McFarland scale (equivalent to 1.5 × 10^8 colony-forming units/mL for bacteria and […] for fungi). A solution of the test substances was then prepared (initial concentration 1000 µg/mL, diluted in sterile Mueller-Hinton broth for bacteria or Mueller-Hinton with 2% glucose for fungi). The test was carried out in 96-well polystyrene flat-bottom plates (Medlab, Poland) with 100 µL of appropriate sterile microbiological medium in each well. The first wells were filled with 200 µL of the test substance, diluted to the initial concentration, and then double-decreasing dilutions were made under aseptic conditions using an automatic pipette. The final step was the addition of a 10-fold diluted microbial suspension of 2 µL. At the same time, the following controls were included: (a) medium control (100 µL of sterile medium without microorganisms added), (b) microbial viability control, (c) test substance control (dilutions without added micro-organisms), (d) positive control of the drug used in the clinic. The plates thus prepared were incubated for 18 ± 2 h at 35 ± 2 °C under conditions optimal for the growth of the test microorganisms. After incubation, the spectrophotometric absorbance at 570 nm in each well of the plate was read. The aim of this part of the study was to determine two parameters: the minimum inhibitory concentration (MIC) and the minimum bactericidal or fungicidal concentration (MBC/MFC) of the test compound. […] The MBC value was determined by adding 5 µL of the contents of each well of the plate to solid sterile MHA or MHA + 2%glc medium for bacteria and fungi, respectively. The area on the plate where 99.9% inhibition of microbial growth was observed indicated the lethal concentration. In addition, the quotient MBC(MFC)/MIC could be determined to assess the nature of the activity of the test substance. If MBC(MFC)/MIC was <4, the test substance was bactericidal/fungicidal, whereas if MBC(MFC)/MIC was ≥4, it was bacteriostatic/fungistatic. Amoxicillin (Glentham Life Sciences, USA) and nystatin (Glentham Life Sciences, USA) were used as the controls for this assay.
The test was performed either on bacteria, comprising: Gram-positive (Staphylococcus aureus ATCC 25923, Staphylococcus aureus ATCC 6538, Staphylococcus aureus ATCC 43300 methicillin-resistant MRSA, Staphylococcus epidermidis ATCC 12228, Micrococcus luteus ATCC 10240, Bacillus subtilis ATCC 6633, Bacillus cereus ATCC 10876) and Gram-negative (Escherichia coli ATCC 25922, Pseudomonas aeruginosa ATCC 27853, Proteus mirabilis ATCC 12453, Klebsiella pneumoniae ATCC 13883) or yeast (Candida parapsilosis ATCC 22019, Candida glabrata ATCC 90030, Candida krusei ATCC 14243, Candida glabrata ATCC 15126, Candida tropicalis ATCC 1369, Candida auris CDC B11903, Candida lusitaniae ATCC 3449) reference strains from the American Type Culture Collection (ATCC) or the Centers for Disease Control and Prevention (CDC).

[17] = Staphylococcus aureus, ATCC25923
[18] = Staphylococcus epidermidis, ATCC12228

Cn1cc([N+](=O)[O-])nc1C(=O)NNC(=S)Nc1ccc(C(F)(F)F)cc1 [Compound 14]
MBC ([1]; Sa 25923): >1000 µg/mL
MIC ([1]; Sa 25923): 31.25 µg/mL (≈ 80.5 µM)
MBC ([2]; Sa 6538): 1000 µg/mL (≈ 2580 µM)
MIC ([2]; Sa 6538): 62.5 µg/mL (≈ 161 µM)
MBC ([3]; Sa 43300 MRSA): 500 µg/mL (≈ 1290 µM)
MIC ([3]; Sa 43300 MRSA): 62.5 µg/mL (≈ 161 µM)
MBC ([4]; Se 12228): 500 µg/mL (≈ 1290 µM)
MIC ([4]; Se 12228): 31.25 µg/mL (≈ 80.5 µM)
MBC/MIC Ratio ([4]; Se 12228, <4 bactericidal, ≥4 bacteriostatic): 16
MBC ([5]; Ml 10240): 500 µg/mL (≈ 1290 µM)
MIC ([5]; Ml 10240): 62.5 µg/mL (≈ 161 µM)
MBC/MIC Ratio ([5]; Ml 10240): 8
MBC ([6]; Bs 6633): 31.25 µg/mL (≈ 80.5 µM)
MIC ([6]; Bs 6633): 31.25 µg/mL (≈ 80.5 µM)
MBC/MIC Ratio ([6]; Bs 6633): 1
MBC ([7]; Bc 10876): 250 µg/mL (≈ 644 µM)
MIC ([7]; Bc 10876): 31.25 µg/mL (≈ 80.5 µM)
MBC/MIC Ratio ([7]; Bc 10876): 8
MIC ([8]; Cp 22019): >1000 µg/mL
MIC ([9]; Cg 90030): >1000 µg/mL
MIC ([10]; Ck 14243): >1000 µg/mL
MIC ([11]; Cg 15126): >1000 µg/mL
MFC ([12]; Ct 1369): 500 µg/mL (≈ 1290 µM)
MIC ([12]; Ct 1369): 500 µg/mL (≈ 1290 µM)
MFC/MIC Ratio ([12]; Ct 1369, <4 fungicidal, ≥4 fungistatic): 1
MIC ([13]; Ca B11903): >1000 µg/mL
MIC ([14]; Cl 3449): >1000 µg/mL
MIC (range or value for several Gram-positive strains) [15]: 31.25 to 62.5 µg/mL
MBC (range, C. parapsilosis ATCC 22019 and C. tropicalis ATCC 1369) [16]: 500 to 1000 µg/mL
MIC (range, C. parapsilosis ATCC 22019 and C. tropicalis ATCC 1369) [16]: 62.5 to 1000 µg/mL

Cn1cc([N+](=O)[O-])nc1C(=O)NNC(=S)Nc1ccc([N+](=O)[O-])cc1 [Compound 18, 1-[(1-methyl-4-nitroimidazol-2-yl)carbonyl]-4-(4-nitrophenyl)-thiosemicarbazide]
MBC [1, 17]: > 1000 µg/mL
MIC [1, 17]: 500 µg/mL (≈ 1370 µM)
MIC ([2]; Staphylococcus aureus, ATCC6538): > 1000 µg/mL
MIC ([3]; Staphylococcus aureus): > 1000 µg/mL
MBC [4, 18]: > 1000 µg/mL
MIC [4, 18]: 1000 µg/mL (≈ 2740 µM)
MBC ([5]; Micrococcus luteus, ATCC10240): 1000 µg/mL (≈ 2740 µM)
MIC ([5]; Micrococcus luteus, ATCC10240): 500 µg/mL (≈ 1370 µM)
MBC/MIC Ratio ([5]; Ml 10240): 2
MBC ([6]; Bacillus subtilis, ATCC6633): 1000 µg/mL (≈ 2740 µM)
MIC ([6]; Bacillus subtilis, ATCC6633): 1000 µg/mL (≈ 2740 µM)
MBC/MIC Ratio ([6]; Bs 6633): 1
MBC ([7]; Bacillus cereus, ATCC10876): 1000 µg/mL (≈ 2740 µM)
MIC ([7]; Bacillus cereus, ATCC10876): 1000 µg/mL (≈ 2740 µM)
MBC/MIC Ratio ([7]; Bc 10876): 1
MIC ([8]; Lodderomyces parapsilosis, ATCC22019): > 1000 µg/mL
MIC ([9]; Nakaseomyces glabratus, ATCC90030): > 1000 µg/mL
MIC ([10]; Pichia kudriavzevii, ATCC14243): > 1000 µg/mL
MIC ([11]; Nakaseomyces glabratus, ATCC15126): > 1000 µg/mL
MFC ([12]; Candida tropicalis, ATCC1369): > 1000 µg/mL
MIC ([12]; Candida tropicalis, ATCC1369): 500 µg/mL (≈ 1370 µM)
MIC ([13]; Candidozyma auris, CDCB11903): > 1000 µg/mL
MIC ([14]; Clavispora lusitaniae, ATCC3449): > 1000 µg/mL
MIC (range or value for several Gram-positive strains) [15]: 500 to 1000 µg/mL
